# Publication PMC8041276 (ACS Chemical Neuroscience, 2021)
# Read-outs that look alike come from different tables or passages of the source.
# Experiments:
# [1] = molecular target: T1, 5-HT6R (Homo sapiens, UniProt P50406); assay: [3H]-LSD radioligand binding assay, HEK293 cells stably expressing human 5-HT6R; set-up: expressed in transfected cells; details: mean of three independent experiments
# Experimental: Final compounds were evaluated in the [^3H]-LSD binding assay using HEK293 cells with stable expression of human 5-HT6R. […] Because the fluorine atom might affect the affinity at target protein as well as physicochemical and pharmacokinetic properties of compound,[22] fluorine substitution at the 2-phenyl ring was applied. […] The analysis of the binding mode of 18 and 28 (Figure 2A) confirmed that the 2-phenyl moiety is placed in the hydrophobic cavity between transmembrane domains (TMs) 4–6.
# (§1) All experiments were carried out according to the previously published procedures.[41]−[43] HEK293 cells stably expressing human 5-HT1A, 5-HT6, 5-HT7b, and D2L receptors (prepared with the use of Lipofectamine 2000) or CHO-K1 cells with plasmid containing the sequence coding for the human serotonin 5-HT2A receptor (PerkinElmer) were maintained at 37 °C in a humidified atmosphere containing 5% CO2 and grown in Dulbecco’s modified Eagle’s medium containing 10% dialyzed fetal bovine serum and 500 μg/mL G418 sulfate. For membrane preparation, cells were cultured in 150 cm^2 flasks, grown to 90% confluence, washed twice with prewarmed to 37 °C phosphate buffered saline (PBS), and centrifuged (200g) in PBS containing 0.1 mM EDTA and 1 mM dithiothreitol. Prior to membrane preparation, pellets were stored at −80 °C. Cell pellets were thawed and homogenized in 10 volumes of assay buffer using an Ultra Turrax tissue homogenizer and centrifuged twice at 35 000g for 15 min at 4 °C, with incubation for 15 min at 37 °C between the centrifugations. The composition of the assay buffers was experimentally selected to achieve the maximum signal window (more details in Supporting Information). All assays were carried out in a total volume of 200 μL in 96-well plates for 1 h at 37 °C except 5-HT1AR and 5-HT2AR which were incubated at room temperature and 27 °C, respectively. The process of equilibration was terminated by rapid filtration through Unifilter plates with a 96-well cell harvester, and radioactivity retained on the filters was quantified on a Microbeta plate reader (PerkinElmer, USA). For displacement studies the assay samples contained the following as radioligands (PerkinElmer, USA): 2.5 nM [^3H]-8-OH-DPAT (135.2 Ci/mmol) for 5-HT1AR; 1 nM [^3H]-ketanserin (53.4 Ci/mmol) for 5-HT2AR; 2 nM [^3H]-LSD (83.6 Ci/mmol) for 5-HT6R; 0.8 nM [^3H]-5-CT (39.2 Ci/mmol) for 5-HT7R or 2.5 nM [^3H]-raclopride (76.0 Ci/mmol) for D2LR. Nonspecific binding was defined in the presence of 10 μM 5-HT in 5-HT1AR and 5-HT7R binding experiments, whereas 20 μM mianserin, 10 μM methiothepine, and 10 μM haloperidol were used in 5-HT2AR, 5-HT6R, and D2LR assays, respectively. Each compound was tested in triplicate at seven concentrations (10^–10–10^–4 M). The inhibition constants (Ki) were calculated from the Cheng–Prusoff equation.[44]
# [2] = molecular target: T2, D2R (Homo sapiens, UniProt P14416); assay: [3H]-raclopride radioligand binding assay, HEK293 cells; details: mean of three experiments
# T2 construct: expressed in transfected cells
# T2 sequence (P14416 whole entry): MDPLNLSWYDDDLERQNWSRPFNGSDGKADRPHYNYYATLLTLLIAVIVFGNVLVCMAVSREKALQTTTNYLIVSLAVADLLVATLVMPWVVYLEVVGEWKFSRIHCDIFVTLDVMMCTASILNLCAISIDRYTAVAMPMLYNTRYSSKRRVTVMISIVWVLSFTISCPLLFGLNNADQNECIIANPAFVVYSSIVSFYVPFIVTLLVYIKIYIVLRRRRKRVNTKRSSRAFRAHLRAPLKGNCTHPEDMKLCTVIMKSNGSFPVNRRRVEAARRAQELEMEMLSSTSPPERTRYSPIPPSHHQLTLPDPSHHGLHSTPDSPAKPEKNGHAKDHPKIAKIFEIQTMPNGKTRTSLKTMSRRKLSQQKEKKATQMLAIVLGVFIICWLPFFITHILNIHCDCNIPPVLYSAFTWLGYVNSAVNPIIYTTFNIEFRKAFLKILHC
# Experimental: as §1
# [3] = molecular target: T3, 5-HT7R (Homo sapiens, UniProt P34969); assay: [3H]-5-CT radioligand binding assay, HEK293 cells; details: mean of three experiments
# T3 construct: expressed in transfected cells
# T3 sequence (P34969 1-432): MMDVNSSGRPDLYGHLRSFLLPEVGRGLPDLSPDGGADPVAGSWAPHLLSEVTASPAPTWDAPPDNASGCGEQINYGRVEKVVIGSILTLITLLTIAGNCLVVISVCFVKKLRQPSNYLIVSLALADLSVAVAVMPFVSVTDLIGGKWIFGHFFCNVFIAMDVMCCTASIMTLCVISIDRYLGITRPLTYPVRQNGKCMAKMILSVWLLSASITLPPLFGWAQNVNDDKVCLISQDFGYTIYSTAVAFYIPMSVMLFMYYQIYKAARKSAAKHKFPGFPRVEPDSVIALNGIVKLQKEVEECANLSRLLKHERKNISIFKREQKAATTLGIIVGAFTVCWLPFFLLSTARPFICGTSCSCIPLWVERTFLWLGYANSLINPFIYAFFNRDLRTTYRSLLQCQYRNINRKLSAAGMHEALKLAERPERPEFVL
# Experimental: as §1
# [4] = molecular target: T4, 5-HT1AR (Homo sapiens, UniProt P08908); assay: [3H]-8-OH-DPAT radioligand binding assay, HEK293 cells; details: mean of three experiments
# T4 construct: expressed in transfected cells
# T4 sequence (P08908 1-422): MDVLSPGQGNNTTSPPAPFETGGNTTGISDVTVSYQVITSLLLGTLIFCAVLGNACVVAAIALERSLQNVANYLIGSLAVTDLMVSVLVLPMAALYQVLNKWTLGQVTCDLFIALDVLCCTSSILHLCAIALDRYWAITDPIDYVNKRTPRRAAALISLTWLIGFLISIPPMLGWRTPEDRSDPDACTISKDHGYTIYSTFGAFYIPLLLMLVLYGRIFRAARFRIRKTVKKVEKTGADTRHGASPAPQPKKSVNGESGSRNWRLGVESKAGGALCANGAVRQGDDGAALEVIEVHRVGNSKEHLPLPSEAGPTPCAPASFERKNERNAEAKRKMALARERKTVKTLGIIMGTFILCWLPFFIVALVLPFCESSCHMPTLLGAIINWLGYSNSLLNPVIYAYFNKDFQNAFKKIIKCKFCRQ
# Experimental: as §1
# [5] = molecular target: T5, 5-HT2AR (Homo sapiens, UniProt P28223); assay: [3H]-ketanserin radioligand binding assay, CHO-K1 cells; details: mean of three experiments
# T5 construct: host or cells: CHO-K1
# T5 sequence (P28223 whole entry): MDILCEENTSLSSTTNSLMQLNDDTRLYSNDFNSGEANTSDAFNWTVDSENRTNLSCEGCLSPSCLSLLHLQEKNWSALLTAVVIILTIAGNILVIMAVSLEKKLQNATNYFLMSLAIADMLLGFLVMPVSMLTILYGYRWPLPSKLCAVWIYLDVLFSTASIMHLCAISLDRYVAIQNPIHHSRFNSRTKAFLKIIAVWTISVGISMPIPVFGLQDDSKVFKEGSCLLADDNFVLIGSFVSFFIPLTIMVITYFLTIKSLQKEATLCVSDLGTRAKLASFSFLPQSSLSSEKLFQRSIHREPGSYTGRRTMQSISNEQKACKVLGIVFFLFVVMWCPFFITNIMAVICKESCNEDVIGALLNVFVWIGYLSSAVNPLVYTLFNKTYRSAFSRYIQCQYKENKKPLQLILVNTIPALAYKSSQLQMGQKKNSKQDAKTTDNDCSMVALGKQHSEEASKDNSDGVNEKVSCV
# [6] = molecular target: T1, 5-HT6R; assay: Basal cAMP production (constitutive Gs signaling) in NG108-15 cells transiently expressing 5-HT6R, CAMYEL BRET; assay type: cell-based; set-up: expressed in transfected cells; host or cells: NG108-15 (transient, Lipofectamine 2000, cotransfected with the CAMYEL sensor); details: for functional profile: 5-HT6R-dependent Gs signaling, NG108-15 cells; for IC50: decrease of basal cAMP, NG108-15 cells transiently expressing 5-HT6R
# Experimental: NG108-15 cells were grown in Dulbecco’s modified Eagle’s medium (DMEM) supplemented with 10% dialyzed fetal calf serum, 2% hypoxanthine/aminopterin/thymidine (Life Technologies), and antibiotics. cAMP measurement was performed in cells transiently expressing 5-HT6R using the bioluminescence resonance energy transfer (BRET) sensor for cAMP, CAMYEL (cAMP sensor using YFP-Epac-RLuc).[45] NG108-15 cells were cotransfected in suspension with 5-HT6R (0.5 μg DNA/million cells) and CAMYEL constructs (1 μg DNA/million cells), using Lipofectamine 2000 according to the manufacturer’s protocol, and plated in white 96-well plates (Greiner) at a density of 50 000 cells per well. […] Coelanterazine H (Molecular Probes) was added at a final concentration of 5 μM and left at room temperature for 5 min. BRET was measured using a Mithras LB 940 plate reader (Berthold Technologies).
# [7] = molecular target: T1, 5-HT6R; assay: Inhibition of 5-CT-stimulated cAMP production in 1321N1 cells; assay type: cell-based; set-up: expressed in transfected cells; details: antagonism of 5-CT (1000 nM)-stimulated cAMP
# Experimental: The effect of compounds 18, 22, 27, and 28 on adenylate cyclase was examined in 1321N1 cells expressing the 5-HT6R.
# The properties of compounds 18, 22, 27, 28 to inhibit cAMP production induced by 5-CT (1000 nM), a 5-HT6R agonist, were evaluated. Compounds were tested in triplicate at eight concentrations (10^–11–10^–4 M). The level of cAMP was measured using frozen recombinant 1321N1 cells expressing the human serotonin 5-HT6R (PerkinElmer). Total cAMP was measured using the LANCE cAMP detection kit (PerkinElmer), according to the manufacturer’s recommendations. For quantification of cAMP levels, 2000 cells/well (5 μL) were incubated with a mixture of compounds (5 μL) for 30 min at room temperature in 384-well white opaque microtiter plate. After incubation, the reaction was stopped and cells were lysed by the addition of 10 μL of working solution (5 μL of Eu-cAMP and 5 μL of ULight-anti-cAMP) for 1 h at room temperature. Time-resolved fluorescence resonance energy transfer (TR-FRET) was detected by an Infinite M1000 Pro (Tecan) using instrument settings from LANCE cAMP detection kit manual. Kb values were calculated from Cheng–Prusoff equation specific for the analysis of functional inhibition curves: Kb = IC50/(1 + A/EC50) where A represents agonist concentration, IC50 the concentration of antagonist producing a 50% reduction in the response to agonist, and EC50 the agonist concentration which causes a half of the maximal response.[44]
# [8] = molecular target: T1, 5-HT6R; set-up: expressed in transfected cells; details: cited from earlier work
# T1 sequence (P50406 whole entry, the tested form may be a part): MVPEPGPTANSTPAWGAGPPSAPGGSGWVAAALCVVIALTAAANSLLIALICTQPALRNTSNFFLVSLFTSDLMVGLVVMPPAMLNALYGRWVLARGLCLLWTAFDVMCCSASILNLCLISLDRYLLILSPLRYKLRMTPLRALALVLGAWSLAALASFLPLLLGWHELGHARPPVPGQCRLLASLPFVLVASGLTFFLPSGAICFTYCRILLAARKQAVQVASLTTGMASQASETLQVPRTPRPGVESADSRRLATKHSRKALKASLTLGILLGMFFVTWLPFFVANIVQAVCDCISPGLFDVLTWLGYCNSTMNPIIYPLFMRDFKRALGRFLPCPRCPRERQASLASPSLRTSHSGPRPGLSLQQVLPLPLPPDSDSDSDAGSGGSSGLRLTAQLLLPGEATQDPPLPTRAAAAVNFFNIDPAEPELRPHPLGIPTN
Compound,Ki [1] [nM],other results
O=C(N[C@@H]1CCNC1)c1ccn(S(=O)(=O)c2ccc(F)cc2)c1-c1ccc(F)cc1 [Compound 29],2580,–
O=C(N[C@@H]1CCNC1)c1ccn(S(=O)(=O)c2ccccc2Cl)c1-c1ccccc1 [Compound 10],179,–
O=C(N[C@H]1CCNC1)c1ccn(S(=O)(=O)c2cccs2)c1-c1ccccc1 [Compound 19],162,–
O=C(N[C@H]1CCNC1)c1ccn(S(=O)(=O)c2cccc(OC(F)(F)F)c2)c1-c1ccccc1 [Compound 16],31,–
"O=C(N[C@H]1CCNC1)c1ccn(S(=O)(=O)c2cccc(Cl)c2)c1-c1ccccc1 [Compound 18, (S)-2-Phenyl-1-[(3-chlorophenyl)sulfonyl]-N-(pyrrolidin-3-yl)-1H-pyrrole-3-carboxamide]",25,Ki [2]: 6840 nM; Ki [3]: 65500 nM; Ki [4]: 1370 nM; Ki [5]: 14600 nM; functional profile [6]: inverse agonist; IC50 [6]: 170 nM; Kb [7]: 35 nM
O=C(N[C@@H]1CCNC1)c1ccn(S(=O)(=O)c2ccccc2)c1-c1ccc(F)cc1 [Compound 24],102,–
O=C(N[C@H]1CCNC1)c1ccn(S(=O)(=O)c2ccc(F)cc2)c1-c1ccc(F)cc1 [Compound 30],638,–
O=C(N[C@H]1CCNC1)c1ccn(S(=O)(=O)c2cccc3cccnc23)c1-c1ccc(F)cc1 [Compound 32],1210,–
O=S(=O)(c1ccccc1)n1ccc2c(NC3CCNC3)nc3ccccc3c21 (stereo not drawn) [I],–,Ki [8]: 10 nM
O=C(N[C@H]1CCNC1)c1ccn(S(=O)(=O)c2cccc(C(F)(F)F)c2)c1-c1ccccc1 [Compound 14],38,–
O=C(N[C@@H]1CCNC1)c1ccn(S(=O)(=O)c2cccc(F)c2)c1-c1ccccc1 [Compound 12],88,–
O=C(N[C@H]1CCNC1)c1ccn(S(=O)(=O)c2ccccc2)c1-c1ccccc1 [Compound 8],106,–
O=C(N[C@@H]1CCNC1)c1ccn(S(=O)(=O)c2cccc(OC(F)(F)F)c2)c1-c1ccccc1 [Compound 15],52,–
O=C(N[C@@H]1CCNC1)c1ccn(S(=O)(=O)c2cccc(Cl)c2)c1-c1cccc(F)c1 [Compound 21],98,–
"O=C(N[C@H]1CCNC1)c1ccn(S(=O)(=O)c2cccc(Cl)c2)c1-c1cccc(F)c1 [Compound 22, (S)-2-(3-Fluorophenyl)-1-[(3-chlorophenyl)sulfonyl)-N-(pyrrolidin-3-yl)-1H-pyrrole-3-carboxamide]",28,Ki [2]: 6660 nM; Ki [3]: 7060 nM; Ki [4]: 65700 nM; Ki [5]: 15200 nM; functional profile [6]: inverse agonist; IC50 [6]: 306 nM; Kb [7]: 6 nM
O=C(N[C@@H]1CCNC1)c1ccn(S(=O)(=O)c2cccc(Cl)c2)c1-c1ccccc1 [Compound 17],35,–
O=C(N[C@@H]1CCNC1)c1ccn(S(=O)(=O)c2cccc(F)c2)c1-c1ccc(F)cc1 [Compound 26],56,–
Cc1ccccc1S(=O)(=O)n1ccc(C(=O)N[C@@H]2CCNC2)c1-c1ccccc1 [Compound 9],324,–
COc1cccc(S(=O)(=O)n2ccc(C(=O)N[C@@H]3CCNC3)c2-c2ccc(F)cc2)c1 [Compound 25],350,–
Cn1cc(S(=O)(=O)n2ccc(C(=O)N[C@H]3CCNC3)c2-c2ccccc2)cn1 [Compound 20],1460,–
O=C(N[C@H]1CCNC1)c1ccn(S(=O)(=O)c2cccc3ccccc23)c1-c1ccc(F)cc1 [Compound 31],391,–
O=C(N[C@@H]1CCNC1)c1ccn(S(=O)(=O)c2ccc(F)cc2)c1-c1cccc(F)c1 [Compound 23],853,–
O=C(N[C@@H]1CCNC1)c1ccn(S(=O)(=O)c2cccc(C(F)(F)F)c2)c1-c1ccccc1 [Compound 13],159,–
Cc1cccc(S(=O)(=O)n2ccc(C(=O)N[C@@H]3CCNC3)c2-c2ccccc2)c1 [Compound 11],96,–
O=C(N[C@@H]1CCNC1)c1ccn(S(=O)(=O)c2ccccc2)c1-c1ccccc1 [Compound 7],208,–
